Source: US20240390330A1, “ALPHA-2-ADRENERGIC RECEPTOR AGONISTS FOR REDUCING REDNESS AND INCREASING WHITENESS IN EYES AND OTHER OPHTHALMIC PURPOSES” (Allergan, Inc., priority 2020, published 2024)

Key:
[1] = Protocol: Aliquots of the PBS only curve were quenched at time zero to be used as stability controls and calibration standards. Following centrifugation, samples were analyzed by LC-MS/MS bioanalysis. Back-calculated concentrations using the assay PBS curve were used for binding and stability calculations.
ocular hyperemia = assay: Reducing eye redness in rabbits (naive and povidone iodine induced hyperemia model); assay type: in vivo, New Zealand White rabbits
Protocol: In this study, Applicant evaluated the compound of Formula I on ocular hyperemia (i.e., eye redness).
The modified Hackett-McDonald Scoring scale (Table 1) was used to assess hyperemia, discomfort, conjunctival swelling and discharge. Ocular imaging was conducted via a Haag-Streit B slit lamp. Effects of these compounds were first evaluated in naïve animals following baseline measurements and then assessed in a povidone iodine induced hyperemia model.
Animals: This study was conducted in female New Zealand White rabbits (Covance) weighing approximately 2-4 kg upon arrival.
This effect can be utilized as a transient hyperemia model to evaluate for potential blanching of blood vessels and rapid reduction of hyperemia. The ocular surface was anesthetized with drops of 0.5% proparacaine. The eye was then irrigated with 5% povidone iodine ophthalmic solution and left on the ocular surface for at least 2 minutes to ensure the solution completely covers the eye. The periocular region was also wiped with povidone solution. Following 2 minutes post-irrigation, the eye was rinsed with sterile saline until the rinsed solution runs clear. Hyperemia at baseline and post ocular topical treatment was assessed via the modified Hackett-McDonald Scoring Scale shown in Table 1 above.
Ocular imaging: A Haag-Streit BP 900 slitlamp was used to evaluate the anterior segment of the eye (e.g., corneal integrity and cells in the aqueous humor). Pupils were dilated by applying drops of 1% cyclopentolate and 10% phenylephrine to the ocular surface. Ocular imaging was conducted in awake and/or anesthetized animals (7.5-10 mg/kg Ketamine/1-10 mg/kg Xylazine).

eye redness = assay: Treatment of red eye (patient cases); assay type: in vivo, human; conditions: person
Source text: A person complains about eye redness caused by seasonal allergies. A physician identifies the patient as having an OSH score of +2, and instructs them to administer to both of their eyes a composition comprising a compound of Formula I once or twice a day. Within the first day of administering the compound of Formula I, the patient reports decreased eye redness despite having on-going seasonal allergies, and their physician identifies the patient as having an OSH score of +0.5.
A person without any underlying health problems notices their eyes are red, making them appear tired at work. They administer to both of their eyes a composition comprising a compound of Formula I in order to increase the whiteness of their eyes for cosmetic reasons.
A person complains to their doctor that they suffer from red eyes due to minor eye irritations. The doctor prescribes a composition comprising a compound of Formula I and instructs them to administer the composition once or twice a day. The doctor also tells the person that many other marketed compositions for reducing eye redness are associated with side effects such as rebound hyperemia, dependency, and/or tachyphylaxis and that the person should report any such side effects.
Upon recommendation from a friend, they ask their doctor about possibly switching to a composition comprising the compound of Formula I since their friend told them that it works faster than brimonidine.

pupil diameter = assay: In vivo rabbit miosis model; set-up: species or system Dutch Belted rabbits; conditions: for miotic efficacy compared with brimonidine: single topical dose, low-light conditions, FIG. 4 to FIG. 7
Protocol: Female Dutch Belted rabbits (Covance, Princeton, New Jersey) weighing between 2-4 kg were used for these studies. […] For topical dosing, eye drops (volume=35 μl) were instilled into the lower conjunctival sac of the test eye.
Pupil diameter was measured in both the treated and untreated eye with an Optistick to the nearest 0.5 mm. […]

pupil size = conditions: brimonidine tartrate ophthalmic solution 0.2%, presbyopic patients, different lighting conditions (McDonald II et al.); cited from earlier work
[2] = after 6 hours, 0.1% w:v, FIG. 7

With Cc1c(N=C2NCCN2)ccc2[nH]cnc12 [Compound 1] the “melanin binding (in words)” value [1] was “no significant melanin binding”, the “hyperemia reduction on digital redness scale compared with LUMIFY” value (ocular hyperemia; 0.03% composition, FIG. 3) was “performed better than LUMIFY®” and the “time post treatment of significant reduction in hyperemia” value (ocular hyperemia; 0.03% composition, FIG. 3) was ≤ 1 min. The “efficacy on ocular hyperemia compared with LUMIFY” value (ocular hyperemia; 0.03% composition, single eye drop (~35 μl), FIG. 1 and FIG. 2) was “significantly greater efficacy on ocular hyperemia than LUMIFY®”, the “reduction in the Modified Hackett-McDonald Score compared with LUMIFY” value (ocular hyperemia; score including hyperemia, discomfort, conjunctival swelling and discharge) was “greater reduction in the Modified Hackett-McDonal Score” and the “onset of eye redness reduction” value (eye redness) was “more effective in reducing eye redness in quite a bit less than a minute and faster than the brimonidine composition”. The “whiteness of the eyes” value (eye redness; cosmetic use, both eyes) was “noticeably whiter”, the eye redness (eye redness; minor eye irritations, once or twice a day, a few weeks) was “no longer as red as they used to be” and the “rebound hyperemia, dependency, tachyphylaxis” value (eye redness; once or twice a day, a few weeks) was “has not observed any of the rebound hyperemia, dependency, or tachyphylaxis”. The OSH score (eye redness; seasonal allergies, baseline +2, within the first day, scale of Table 2) was “+0.5”, the “responder analysis of rabbits with >2.5 mm pupil change” value (pupil diameter; 0.1% w:v, n=6, scotopic condition (<10 lux), FIG. 7) was “more efficacious than brimonidine” and the “magnitude of pupil size reduction compared with brimonidine” value (pupil diameter; FIG. 7 and FIGS. 5 and 6) was “greater magnitude of pupil size reduction and therapeutic activity when compared to brimonidine”. For the same compound, the “pupil constriction over 9 hours” value (pupil diameter; FIG. 9) was “significant pupil constriction even at 9 hours after dosing”, the “effect on pupil constriction compared with Compound 3” value (pupil diameter; FIG. 10) was “greater effect on pupil constriction when compared to Compound 3” and the dose miotic response (pupil diameter; Scotopic condition (<10 lux), FIG. 6) was “very potent dose miotic response”. The “animals with greater than 2.5 mm reduction in pupil size from baseline” value (pupil diameter; [2]) was “more than half”, the “miotic effect compared with other alpha adrenergic receptor agonists including brimonidine” value (pupil diameter; rabbit, in vivo) was “best miotic effect” and the “miotic action (peak pupil constriction and duration of action)” value (pupil diameter; room lighting conditions, FIG. 8) was “greater miotic action than brimonidine”. For the same compound, the “animals with greater than 2.5 mm reduction in pupil size from baseline” value (pupil diameter; two hours after dosing, 0.1% w:v, FIG. 7) was “virtually all animals”.
In the case of CCc1c(N=C2NCCN2)ccc2[nH]cnc12 [Compound 2, reference compound], the “miotic efficacy compared with brimonidine” value (pupil diameter) is reported as “much less than brimonidine”.
In the case of Brc1c(N=C2NCCN2)ccc2[nH]cnc12 [Compound 3, reference compound], the “miotic efficacy compared with brimonidine” value (pupil diameter) is reported as “much less than brimonidine”.
For Brc1c(NC2=NCCN2)ccc2nccnc12 [Compound 4, brimonidine, reference compound], the average pupil size (pupil size) is given as 3.4 mm, the “melanin binding (in words)” value [1] is given as “much more significant binding” and the “onset of eye redness reduction” value (eye redness) is given as “takes effect in less than a minute”. For the same compound, the “animals with greater than 2.5 mm reduction in pupil size from baseline” value (pupil diameter; a half hour after dosing, 0.1% w:v, FIG. 7) was “much less than half” and the “animals with greater than 2.5 mm reduction in pupil size from baseline” value (pupil diameter; [2]) was “virtually none”.
